Results: patent US7074789B2, “Kinase inhibitors” (Amgen Inc., priority 1999, dated 2006)

Legend:
Type in all cases: biochemical
[1] = target: T1, EPHB4 (Homo sapiens, UniProt P54760); assay: Kinase inhibition assay (33P transfer), EPHB4; details: read-out: EPHB4-1
T1 construct: Kinases are expressed as either kinase domains or full length constructs; made in house
T1 sequence (P54760 16-987): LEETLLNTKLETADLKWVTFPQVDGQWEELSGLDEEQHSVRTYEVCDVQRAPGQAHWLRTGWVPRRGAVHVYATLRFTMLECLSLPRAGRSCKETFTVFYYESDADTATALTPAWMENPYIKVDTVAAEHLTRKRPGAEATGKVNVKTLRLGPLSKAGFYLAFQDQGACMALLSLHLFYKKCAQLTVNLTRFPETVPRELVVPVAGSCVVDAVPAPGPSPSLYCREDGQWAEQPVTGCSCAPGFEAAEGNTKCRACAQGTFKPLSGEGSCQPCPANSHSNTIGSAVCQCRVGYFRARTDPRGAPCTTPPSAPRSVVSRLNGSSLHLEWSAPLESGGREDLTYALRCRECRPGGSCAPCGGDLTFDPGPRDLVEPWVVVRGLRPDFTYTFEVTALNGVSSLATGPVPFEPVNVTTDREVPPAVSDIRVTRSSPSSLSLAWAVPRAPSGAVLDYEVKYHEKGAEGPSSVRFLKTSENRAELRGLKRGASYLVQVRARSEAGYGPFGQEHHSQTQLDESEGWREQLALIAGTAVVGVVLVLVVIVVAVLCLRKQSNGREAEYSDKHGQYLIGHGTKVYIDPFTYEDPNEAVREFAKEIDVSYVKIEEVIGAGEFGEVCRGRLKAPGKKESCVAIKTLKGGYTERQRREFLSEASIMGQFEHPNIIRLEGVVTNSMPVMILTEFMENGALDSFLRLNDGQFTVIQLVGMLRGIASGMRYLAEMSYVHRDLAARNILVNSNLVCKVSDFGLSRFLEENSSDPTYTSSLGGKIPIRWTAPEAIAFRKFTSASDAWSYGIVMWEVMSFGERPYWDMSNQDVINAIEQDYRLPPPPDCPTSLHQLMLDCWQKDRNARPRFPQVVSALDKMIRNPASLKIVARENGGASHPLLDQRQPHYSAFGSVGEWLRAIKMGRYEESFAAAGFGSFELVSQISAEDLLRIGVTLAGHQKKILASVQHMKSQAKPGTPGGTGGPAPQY

[2] = target: T2, Src (Homo sapiens, UniProt P12931); assay: Kinase inhibition assay (33P transfer), Src; details: Table 6, Src-1 kinase inhibition class
T2 construct: Kinases are expressed as either kinase domains or full length constructs; made in house
T2 sequence (P12931 whole entry, species assumed, the tested form may be a part): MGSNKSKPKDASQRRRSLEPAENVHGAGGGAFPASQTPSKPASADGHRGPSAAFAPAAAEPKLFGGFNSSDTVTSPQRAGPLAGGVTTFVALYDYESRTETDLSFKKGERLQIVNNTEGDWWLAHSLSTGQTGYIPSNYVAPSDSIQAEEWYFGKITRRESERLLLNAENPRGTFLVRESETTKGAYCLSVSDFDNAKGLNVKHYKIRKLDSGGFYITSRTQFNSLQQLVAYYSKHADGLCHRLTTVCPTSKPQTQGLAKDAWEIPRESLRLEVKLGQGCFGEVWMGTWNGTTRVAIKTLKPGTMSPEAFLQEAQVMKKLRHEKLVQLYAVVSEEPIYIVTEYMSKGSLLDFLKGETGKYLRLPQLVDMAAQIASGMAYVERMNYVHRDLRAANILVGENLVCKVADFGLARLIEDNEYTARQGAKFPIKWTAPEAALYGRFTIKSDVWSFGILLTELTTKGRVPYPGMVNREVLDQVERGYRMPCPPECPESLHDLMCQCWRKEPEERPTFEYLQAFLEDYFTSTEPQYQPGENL
Procedure, shortened: (§1)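 Using immobilised substrate copolymers (poly(Glu,Tyr) 4:1; poly(Arg,Ser) 3:1) and [33P]ATP, purified fusion kinases were allowed to react; plates were then rinsed in 0.5% phosphoric acid and counted in a scintillation detector. Half-maximal inhibition of label transfer defines IC50.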

[3] = target: T3, Ret-1 (Homo sapiens, UniProt P07949); assay: Kinase inhibition assay (33P transfer), Ret; details: Table 6, Ret-1 kinase inhibition class
T3 construct: Kinases are expressed as either kinase domains or full length constructs; made in house

[4] = target: T4, Flt-1 (Homo sapiens, UniProt P17948); assay: Kinase inhibition assay (33P transfer), Flt-1
T4 construct: Kinases are expressed as either kinase domains or full length constructs; made in house
T4 sequence (P17948 27-1338, species assumed): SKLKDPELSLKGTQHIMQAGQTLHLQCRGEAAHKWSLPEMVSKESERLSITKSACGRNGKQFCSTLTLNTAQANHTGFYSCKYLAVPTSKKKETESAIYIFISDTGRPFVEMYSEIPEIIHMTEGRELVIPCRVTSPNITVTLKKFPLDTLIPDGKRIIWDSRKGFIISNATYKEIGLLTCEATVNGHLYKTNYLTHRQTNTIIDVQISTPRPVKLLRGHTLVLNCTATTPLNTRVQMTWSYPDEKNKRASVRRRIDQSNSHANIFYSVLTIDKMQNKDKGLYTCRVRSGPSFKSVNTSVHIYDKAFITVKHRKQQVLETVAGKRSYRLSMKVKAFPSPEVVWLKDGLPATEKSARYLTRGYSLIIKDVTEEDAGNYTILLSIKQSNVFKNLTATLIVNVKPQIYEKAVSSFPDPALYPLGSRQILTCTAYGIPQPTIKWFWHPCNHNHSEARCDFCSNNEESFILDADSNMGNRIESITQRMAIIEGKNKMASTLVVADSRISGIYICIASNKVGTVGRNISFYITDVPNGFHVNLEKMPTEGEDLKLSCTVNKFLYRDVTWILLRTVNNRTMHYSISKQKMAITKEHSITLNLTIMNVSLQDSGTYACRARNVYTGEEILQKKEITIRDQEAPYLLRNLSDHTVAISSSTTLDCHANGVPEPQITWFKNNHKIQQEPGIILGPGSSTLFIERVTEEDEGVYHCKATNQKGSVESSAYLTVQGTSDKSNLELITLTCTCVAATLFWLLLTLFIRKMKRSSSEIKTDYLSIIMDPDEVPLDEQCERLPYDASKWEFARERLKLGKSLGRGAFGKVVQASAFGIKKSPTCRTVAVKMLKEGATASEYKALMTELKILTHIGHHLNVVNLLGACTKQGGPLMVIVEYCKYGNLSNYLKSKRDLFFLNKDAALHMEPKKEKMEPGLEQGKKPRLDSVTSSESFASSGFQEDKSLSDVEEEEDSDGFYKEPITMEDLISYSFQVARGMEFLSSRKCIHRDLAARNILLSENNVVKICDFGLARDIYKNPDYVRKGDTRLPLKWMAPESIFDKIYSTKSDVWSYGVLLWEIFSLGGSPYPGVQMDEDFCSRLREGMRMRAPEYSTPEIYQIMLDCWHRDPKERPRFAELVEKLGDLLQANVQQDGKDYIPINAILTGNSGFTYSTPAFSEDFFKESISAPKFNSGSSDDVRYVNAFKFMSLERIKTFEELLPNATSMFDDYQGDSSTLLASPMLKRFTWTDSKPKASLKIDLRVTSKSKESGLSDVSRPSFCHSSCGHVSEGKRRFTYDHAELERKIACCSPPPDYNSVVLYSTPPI
Procedure, shortened: as §1

[5] = target: T5, PDGFRB (Homo sapiens, UniProt P09619); assay: Kinase inhibition assay (33P transfer), PDGFRB; details: read-out: PDGFRB-1
T5 construct: Kinases are expressed as either kinase domains or full length constructs; made in house
T5 sequence (P09619 33-1106, species assumed): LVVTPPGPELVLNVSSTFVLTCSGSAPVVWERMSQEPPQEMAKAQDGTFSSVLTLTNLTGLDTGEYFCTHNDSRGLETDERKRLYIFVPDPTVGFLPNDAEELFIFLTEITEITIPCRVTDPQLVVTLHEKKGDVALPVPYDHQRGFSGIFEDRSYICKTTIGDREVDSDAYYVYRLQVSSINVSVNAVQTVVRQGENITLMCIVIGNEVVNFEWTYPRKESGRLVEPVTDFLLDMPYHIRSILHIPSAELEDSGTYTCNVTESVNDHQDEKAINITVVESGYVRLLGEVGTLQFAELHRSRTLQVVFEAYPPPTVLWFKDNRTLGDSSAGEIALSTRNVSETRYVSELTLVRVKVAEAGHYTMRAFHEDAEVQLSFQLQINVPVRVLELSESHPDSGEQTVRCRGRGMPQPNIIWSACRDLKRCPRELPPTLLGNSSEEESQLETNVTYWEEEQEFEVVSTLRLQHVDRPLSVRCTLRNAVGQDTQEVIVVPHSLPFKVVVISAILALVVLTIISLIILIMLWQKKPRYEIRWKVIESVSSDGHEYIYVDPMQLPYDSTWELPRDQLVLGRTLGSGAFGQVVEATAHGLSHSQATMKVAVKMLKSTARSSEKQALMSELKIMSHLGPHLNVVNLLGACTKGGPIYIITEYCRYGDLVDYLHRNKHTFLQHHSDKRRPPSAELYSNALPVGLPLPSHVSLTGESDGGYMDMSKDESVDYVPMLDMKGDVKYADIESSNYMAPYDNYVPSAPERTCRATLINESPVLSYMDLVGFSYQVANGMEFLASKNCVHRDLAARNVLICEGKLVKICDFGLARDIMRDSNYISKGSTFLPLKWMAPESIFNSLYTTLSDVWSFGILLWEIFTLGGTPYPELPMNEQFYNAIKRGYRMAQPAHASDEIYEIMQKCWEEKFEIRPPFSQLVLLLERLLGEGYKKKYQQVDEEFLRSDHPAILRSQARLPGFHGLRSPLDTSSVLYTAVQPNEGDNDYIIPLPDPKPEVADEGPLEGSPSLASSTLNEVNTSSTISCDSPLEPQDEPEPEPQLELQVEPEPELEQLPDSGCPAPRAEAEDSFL

[6] = target: T6, ErbB2 (Homo sapiens, UniProt P04626); assay: Kinase inhibition assay (33P transfer), ErbB2; details: read-out: ErbB2-2
T6 construct: Kinases are expressed as either kinase domains or full length constructs; made in house
T6 sequence (P04626 23-1255, species assumed): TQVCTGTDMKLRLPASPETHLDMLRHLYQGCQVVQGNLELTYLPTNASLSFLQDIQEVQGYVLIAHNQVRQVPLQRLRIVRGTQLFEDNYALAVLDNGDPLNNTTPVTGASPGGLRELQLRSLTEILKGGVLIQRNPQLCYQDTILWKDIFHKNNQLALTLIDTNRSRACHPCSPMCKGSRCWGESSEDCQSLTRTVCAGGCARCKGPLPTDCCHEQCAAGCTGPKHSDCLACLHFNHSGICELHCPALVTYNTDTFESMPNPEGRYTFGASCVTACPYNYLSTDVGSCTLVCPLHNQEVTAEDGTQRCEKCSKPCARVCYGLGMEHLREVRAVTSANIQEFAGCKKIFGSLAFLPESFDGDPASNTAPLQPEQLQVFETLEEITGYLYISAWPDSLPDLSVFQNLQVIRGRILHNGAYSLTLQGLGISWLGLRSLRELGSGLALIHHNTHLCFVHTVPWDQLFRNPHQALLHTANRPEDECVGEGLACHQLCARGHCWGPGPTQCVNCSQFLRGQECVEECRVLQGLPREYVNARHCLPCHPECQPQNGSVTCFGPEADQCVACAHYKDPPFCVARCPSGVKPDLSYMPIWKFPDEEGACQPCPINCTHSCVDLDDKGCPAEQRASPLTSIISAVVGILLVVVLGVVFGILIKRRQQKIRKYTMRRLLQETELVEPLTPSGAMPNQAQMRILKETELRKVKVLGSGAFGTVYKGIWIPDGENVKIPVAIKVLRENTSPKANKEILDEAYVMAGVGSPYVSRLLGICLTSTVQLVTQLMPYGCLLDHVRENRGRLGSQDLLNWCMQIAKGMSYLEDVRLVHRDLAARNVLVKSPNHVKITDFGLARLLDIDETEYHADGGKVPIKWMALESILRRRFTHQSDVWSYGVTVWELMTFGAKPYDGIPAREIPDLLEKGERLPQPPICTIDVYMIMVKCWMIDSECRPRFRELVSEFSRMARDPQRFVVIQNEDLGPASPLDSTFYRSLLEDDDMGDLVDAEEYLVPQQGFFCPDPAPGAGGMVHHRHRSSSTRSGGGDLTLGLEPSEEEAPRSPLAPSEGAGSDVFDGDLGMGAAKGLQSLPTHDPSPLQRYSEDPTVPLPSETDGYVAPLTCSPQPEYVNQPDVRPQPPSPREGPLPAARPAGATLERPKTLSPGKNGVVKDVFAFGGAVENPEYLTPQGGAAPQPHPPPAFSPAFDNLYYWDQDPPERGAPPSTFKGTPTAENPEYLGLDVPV
Procedure, shortened: as §1

IC50 [1] [µM] | IC50 [2] [µM] | IC50 [3] [µM] | IC50 [4] [µM] | IC50 [5] [µM] | IC50 [6] [µM] | Compound
1 to 6.01 | < 1 | < 1 | < 1 | < 1 | 1 to 6.01 | COc1ccc(Nc2ncnc(Nc3cc(OC)c(OC)c(OC)c3)n2)cc1O [Compound 931]
6.53 to 9.53 | < 1.09 | 1.09 to 6.53 | 6.53 to 9.53 | < 1.09 | 1.09 to 6.53 | COc1cc(Nc2ncnc(Nc3ccc(C)cc3)n2)cc(OC)c1OC [Compound 930]
> 11.5 | > 11.5 | > 11.5 | 6.13 to 8.94 | < 1.02 |  | COc1cc(Nc2ncnc(-n3cc(C)c4ccccc43)n2)cc(OC)c1OC [Compound 323]
8.47 to 10.9 | > 10.9 | > 10.9 | < 0.968 | < 0.968 |  | COc1ccc(Nc2ncnc(Nc3cc(OC)c(OC)c(OC)c3)n2)cc1OC [Compound 36]
1.1 to 6.62 | > 12.4 | < 1.1 | < 1.1 | 1.1 to 6.62 |  | NC(=O)c1cccc(Nc2ncnc(Nc3cc(-c4ccco4)n[nH]3)n2)c1 [Compound 342]
1.04 to 6.23 | 1.04 to 6.23 | < 1.04 | 9.08 to 11.7 | < 1.04 |  | COc1cc(Nc2ncnc(Nc3ccc(C)cc3F)n2)cc(OC)c1OC [Compound 937]
> 13 | > 13 | > 13 | > 13 | > 13 |  | C#Cc1cccc(Nc2ncnc(Nc3ccc(OC)c(OC)c3)n2)c1 [Compound 116]
< 1.03 | < 1.03 | 1.03 to 6.19 | > 11.6 | < 1.03 | < 1.03 | COc1cc(Nc2ncnc(Nc3cccc(Cl)c3)n2)cc(OC)c1OC [Compound 135]
0.852 to 5.11 | 5.11 to 7.45 | < 0.852 | 0.852 to 5.11 | 7.45 to 9.58 |  | COc1cc(Nc2ncnc(N(c3ccccc3)c3nc4ccccc4[nH]3)n2)cc(OC)c1OC [Compound 335]
8.5 to 10.9 | > 10.9 | 5.83 to 8.5 | 8.5 to 10.9 | > 10.9 |  | COc1cc(Nc2ncnc(-n3ccc4ccc(Cl)cc43)n2)cc(OC)c1OC [Compound 237]
> 9.49 | > 9.49 | > 9.49 | > 9.49 | > 9.49 |  | COc1ccc(Nc2ncnc(N(C/C=C/c3ccccc3)c3ccc(Cl)cc3)n2)cc1OC [Compound 974]
9.66 to 12.4 | 6.62 to 9.66 | 1.1 to 6.62 | 1.1 to 6.62 | > 12.4 |  | COc1ccc(Nc2ncnc(Nc3ccc4[nH]ccc4c3)n2)cc1OC [Compound 115]
< 0.977 | < 0.977 | < 0.977 | < 0.977 | < 0.977 |  | COc1cc(Nc2ncnc(Nc3cc(-c4ccco4)n[nH]3)n2)cc(OC)c1OC [Compound 308]
1.26 to 7.56 | 1.26 to 7.56 | < 1.26 | 1.26 to 7.56 | < 1.26 | 1.26 to 7.56 | Cc1cccc(Nc2ncnc(Nc3ccc4[nH]ncc4c3)n2)c1 [Compound 120]
> 11 | > 11 | > 11 | 0.982 to 5.89 | < 0.982 |  | COc1ccc2c(ccn2-c2ncnc(Nc3cc(OC)c(OC)c(OC)c3)n2)c1 [Compound 196]
11.1 to 14.2 | < 1.26 | 1.26 to 7.59 | < 1.26 | < 1.26 | < 1.26 | Cc1cccc(Nc2ncnc(Nc3ccc4[nH]ccc4c3)n2)c1 [Compound 110]
5.51 to 8.04 | > 10.3 | 0.919 to 5.51 | 0.919 to 5.51 | 0.919 to 5.51 |  | COc1cc(Nc2ncnc(-n3c(NC(C)=O)nc4ccccc43)n2)cc(OC)c1OC [Compound 334]
> 11.9 | > 11.9 | > 11.9 | 1.06 to 6.36 | < 1.06 | > 11.9 | COc1cc(Nc2ncnc(-n3ccc4ccccc43)n2)cc(OC)c1OC [Compound 185]

IC50 [1] [µM] | IC50 [2] [µM] | IC50 [3] [µM] | IC50 [4] [µM] | IC50 [5] [µM] | IC50 [6] [µM] | Compound
4.97 to 7.25 | 0.829 to 4.97 | 4.97 to 7.25 | 7.25 to 9.33 | 4.97 to 7.25 | < 0.829 | COc1cc(Nc2ncnc(Nc3ccc4c(ccn4Cc4ccccc4)c3)n2)cc(OC)c1OC [Compound 178]
> 10.8 | > 10.8 | > 10.8 | > 10.8 | 0.958 to 5.75 |  | COC(=O)c1sccc1Nc1ncnc(Nc2cc(OC)c(OC)c(OC)c2)n1 [Compound 315]
> 10.5 | > 10.5 | > 10.5 | 5.59 to 8.15 | 8.15 to 10.5 | 0.931 to 5.59 | COc1cc(Nc2ncnc(Nc3ccc(OCc4ccccc4)cc3)n2)cc(OC)c1 [Compound 156]
> 9.31 | > 9.31 | > 9.31 | > 9.31 | 0.827 to 4.96 |  | COc1cc(Nc2ncnc(-n3ccc4cc(OCc5ccccc5)ccc43)n2)cc(OC)c1OC [Compound 200]
8.99 to 11.6 | 8.99 to 11.6 | 1.03 to 6.16 | 8.99 to 11.6 | < 1.03 |  | COc1cc(Nc2ncnc(Nc3cc(F)ccc3F)n2)cc(OC)c1OC [Compound 316]
> 10.2 | < 0.906 | 0.906 to 5.44 | < 0.906 | < 0.906 |  | COCCOc1ccc(Nc2ncnc(Nc3ccc(C)c(O)c3)n2)cc1OCCOC [Compound 125]
6.87 to 10 | 10 to 12.9 | < 1.14 | < 1.14 | 1.14 to 6.87 |  | COc1ccc(Nc2ncnc(-n3c(N)nc4ccccc43)n2)cc1O [Compound 286]
0.888 to 5.33 | 0.888 to 5.33 | < 0.888 | 0.888 to 5.33 | 0.888 to 5.33 |  | COc1cc(Nc2ncnc(Nc3ccc(Br)cc3F)n2)cc(OC)c1OC [Compound 41]
0.869 to 5.21 | < 0.869 | < 0.869 | 0.869 to 5.21 | < 0.869 |  | COc1cc(Nc2ncnc(Nc3ccc(C)c(NS(C)(=O)=O)c3)n2)cc(OC)c1OC [Compound 305]
0.986 to 5.91 | 0.986 to 5.91 | < 0.986 | 0.986 to 5.91 | < 0.986 |  | COc1cc(Nc2ncnc(Nc3ccc(Cl)cc3F)n2)cc(OC)c1OC [Compound 306]
0.989 to 5.93 | > 11.1 | < 0.989 | < 0.989 | 8.65 to 11.1 |  | c1coc(-c2cc(Nc3ncnc(Nc4ccc(N5CCOCC5)cc4)n3)[nH]n2)c1 [Compound 340]
> 10.6 | > 10.6 | > 10.6 | > 10.6 | > 10.6 |  | COc1cc(Nc2ncnc(N3CCc4cc([N+](=O)[O-])ccc43)n2)cc(OC)c1OC [Compound 187]
> 11 | > 11 | > 11 | > 11 | > 11 |  | COCCOc1ccc(Nc2ncnc(-n3c(N)nc4ccccc43)n2)cc1OC [Compound 287]
< 0.94 | < 0.94 | < 0.94 | < 0.94 | < 0.94 |  | COc1cc(Nc2ncnc(Nc3cc(-c4cccs4)n[nH]3)n2)cc(OC)c1OC [Compound 318]
> 8.93 | > 8.93 | > 8.93 | 4.76 to 6.94 | > 8.93 |  | COc1cc(Nc2ncnc(N(C/C=C/c3ccccc3)c3ccc(Cl)cc3)n2)cc(OC)c1OC [Compound 56]
> 10.1 | > 10.1 | < 0.9 | < 0.9 | > 10.1 |  | COc1cc(Nc2ncnc(-n3c(N)nc4ccccc43)n2)ccc1OCCn1ccnn1 [Compound 324]
> 11.4 | > 11.4 | > 11.4 | < 1.01 | < 1.01 |  | COc1cc(Nc2ncnc(-n3c(=O)[nH]c4ccccc43)n2)cc(OC)c1OC [Compound 325]
8.81 to 11.3 | < 1.01 | < 1.01 | < 1.01 | < 1.01 |  | COCCOc1cc(Nc2ncnc(Nc3ccc(C)c(O)c3)n2)ccc1OC [Compound 127]
